From ChEMBL document CHEMBL1201862, “PubChem BioAssay data set” (2004)
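Each compound was tested at five concentrations against cells in 96-well plates for 48 hours. GI50 marks 50% less growth.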 Calls of active or inactive are those of the source. Cut-off read from the data, not from the text of the source: active = GI50 up to about 1.1 µM and inactive = higher.

Experiments:
Test in all cases: growth of human tumour cells (NCI), 48 h
786-0 = tested on: 786-0
A498 = tested on: A498
A549 = tested on: A549
ACHN = tested on: ACHN
BT-549 = tested on: BT-549
CAKI-1 = tested on: CAKI-1
CCRF-CEM = tested on: CCRF-CEM
COLO 205 = tested on: COLO 205
EKVX = tested on: EKVX
HCC 2998 = tested on: HCC 2998
HCT-116 = tested on: HCT-116
HCT-15 = tested on: HCT-15
HOP-62 = tested on: HOP-62
HT-29 = tested on: HT-29
Hs-578T = tested on: Hs-578T
K562 = tested on: K562
KM12 = tested on: KM12
M14 = tested on: M14
MCF7 = tested on: MCF7
MDA-MB-231 = tested on: MDA-MB-231
MDA-MB-435 = tested on: MDA-MB-435
MDA-N = tested on: MDA-N
MOLT-4 = tested on: MOLT-4
Malme-3M = tested on: Malme-3M
NCI-H226 = tested on: NCI-H226
NCI-H23 = tested on: NCI-H23
NCI-H460 = tested on: NCI-H460
NCI/ADR-RES = tested on: NCI/ADR-RES
OVCAR-3 = tested on: OVCAR-3
OVCAR-4 = tested on: OVCAR-4
OVCAR-5 = tested on: OVCAR-5
PC-3 = tested on: PC-3
RPMI-8226 = tested on: RPMI-8226
SF-268 = tested on: SF-268
SF-295 = tested on: SF-295
SF-539 = tested on: SF-539
SK-MEL-28 = tested on: SK-MEL-28
SK-MEL-2 = tested on: SK-MEL-2
SK-OV-3 = tested on: SK-OV-3
SN12C = tested on: SN12C
SNB-19 = tested on: SNB-19
SNB-75 = tested on: SNB-75
SW-620 = tested on: SW-620
T47D = tested on: T47D
U-251 = tested on: U-251
UACC-257 = tested on: UACC-257
UACC-62 = tested on: UACC-62
UO-31 = tested on: UO-31
DU-145 = tested on: DU-145
LOX IMVI = tested on: LOX IMVI

SMILES: CCOC(=O)C(C(=O)COC(C)(C)C)[C@@H]1C=C[C@H](OC(C)=O)C1 (stereo partly specified)
- GI50 (786-0): > 100 µM (inactive)
- GI50 (A498): > 100 µM (inactive)
- GI50 (A549): > 100 µM (inactive)
- GI50 (ACHN): > 100 µM (inactive)
- GI50 (BT-549): > 100 µM (inactive)
- GI50 (CAKI-1): > 100 µM (inactive)
- GI50 (CCRF-CEM): 73.8 µM (inactive)
- GI50 (COLO 205): > 100 µM (inactive)
- GI50 (EKVX): > 100 µM (inactive)
- GI50 (HCC 2998): > 100 µM (inactive)
- GI50 (HCT-116): > 100 µM (inactive)
- GI50 (HCT-15): > 100000 nM
- GI50 (HOP-62): > 100 µM (inactive)
- GI50 (HT-29): > 100 µM (inactive)
- GI50 (Hs-578T): > 100 µM (inactive)
- GI50 (K562): > 100 µM (inactive)
- GI50 (KM12): > 100 µM (inactive)
- GI50 (M14): > 100 µM (inactive)
- GI50 (MCF7): > 100 µM (inactive)
- GI50 (MDA-MB-231): > 100 µM (inactive)
- GI50 (MDA-MB-435): > 100 µM (inactive)
- GI50 (MDA-N): > 100 µM (inactive)
- GI50 (MOLT-4): 65.2 µM (inactive)
- GI50 (Malme-3M): > 100 µM (inactive)
- GI50 (NCI-H226): > 100 µM (inactive)
- GI50 (NCI-H23): > 100 µM (inactive)
- GI50 (NCI-H460): > 100 µM (inactive)
- GI50 (NCI/ADR-RES): > 100 µM (inactive)
- GI50 (OVCAR-3): > 100 µM (inactive)
- GI50 (OVCAR-4): > 100 µM (inactive)
- GI50 (OVCAR-5): > 100 µM (inactive)
- GI50 (PC-3): > 100 µM (inactive)
- GI50 (RPMI-8226): > 100 µM (inactive)
- GI50 (SF-268): > 100 µM (inactive)
- GI50 (SF-295): > 100 µM (inactive)
- GI50 (SF-539): > 100 µM (inactive)
- GI50 (SK-MEL-28): > 100 µM (inactive)
- GI50 (SK-MEL-2): > 100 µM (inactive)
- GI50 (SK-OV-3): > 100 µM (inactive)
- GI50 (SN12C): > 100 µM (inactive)
- GI50 (SNB-19): > 100 µM (inactive)
- GI50 (SNB-75): > 100 µM (inactive)
- GI50 (SW-620): > 100 µM (inactive)
- GI50 (T47D): > 100 µM (inactive)
- GI50 (U-251): > 100 µM (inactive)
- GI50 (UACC-257): > 100 µM (inactive)
- GI50 (UACC-62): > 100 µM (inactive)
- GI50 (UO-31): > 100 µM (inactive)

SMILES: C=C1C(=O)[C@@]23CC1C(O)[C@@H](OC(C)=O)[C@@H]2C1(C)C(OC(C)=O)C[C@@H](OC(C)=O)C(C)(C)[C@@H]1C[C@H]3OC(C)=O (stereo partly specified)
- GI50 (786-0): 5.52 µM (inactive)
- GI50 (A498): > 10 µM (inactive)
- GI50 (ACHN): > 10 µM (inactive)
- GI50 (BT-549): 1.47 µM (inactive)
- GI50 (CAKI-1): 6.27 µM (inactive)
- GI50 (DU-145): > 10 µM (inactive)
- GI50 (HCC 2998): > 10 µM (inactive)
- GI50 (HCT-15): 2600 nM
- GI50 (HOP-62): > 10 µM (inactive)
- GI50 (Hs-578T): 2.9 µM (inactive)
- GI50 (LOX IMVI): 6.35 µM (inactive)
- GI50 (MCF7): 2.58 µM (inactive)
- GI50 (MDA-N): 3.85 µM (inactive)
- GI50 (NCI-H226): > 10 µM (inactive)
- GI50 (NCI/ADR-RES): > 10 µM (inactive)
- GI50 (PC-3): > 10 µM (inactive)
- GI50 (SN12C): 3.77 µM (inactive)
- GI50 (T47D): 2.12 µM (inactive)
